Experimental data published in ChEMBL document CHEMBL1938230, “6-Position optimization of tricyclic 4-quinolone-based inhibitors of glycogen synthase kinase-3β: discovery of nitrile derivatives with picomolar potency” (Bioorg Med Chem Lett, 2012).

What was measured:
[1] = target: Leucine-rich repeat serine/threonine-protein kinase 2 (Homo sapiens) (UniProt Q5S007); assay: Inhibition of human LRRK2 in HL-60 cells lysate assessed as reduction of labeling of acyl-phosphate ATP probe at 100 nM; assay type: cell-free
[2] = target: Tyrosine-protein kinase ABL (Homo sapiens) (UniProt P00519+P42684); assay: Inhibition of human ABL/ARG in HL-60 cells lysate assessed as reduction of labeling of acyl-phosphate ATP probe at 100 nM; assay type: cell-free
[3] = target: Dual specificity mitogen-activated protein kinase kinase 2 (Homo sapiens) (UniProt P36507); assay: Inhibition of human MAP2K2 in HL-60 cells lysate assessed as reduction of labeling of acyl-phosphate ATP probe at 100 nM; assay type: cell-free
[4] = target: T1, Phosphatidylinositol 4,5-bisphosphate 3-kinase catalytic subunit delta isoform (Homo sapiens) (UniProt O00329); assay: Inhibition of human PIK3CD in HL-60 cells lysate assessed as reduction of labeling of acyl-phosphate ATP probe at 100 nM; assay type: cell-free
T1 sequence (whole entry): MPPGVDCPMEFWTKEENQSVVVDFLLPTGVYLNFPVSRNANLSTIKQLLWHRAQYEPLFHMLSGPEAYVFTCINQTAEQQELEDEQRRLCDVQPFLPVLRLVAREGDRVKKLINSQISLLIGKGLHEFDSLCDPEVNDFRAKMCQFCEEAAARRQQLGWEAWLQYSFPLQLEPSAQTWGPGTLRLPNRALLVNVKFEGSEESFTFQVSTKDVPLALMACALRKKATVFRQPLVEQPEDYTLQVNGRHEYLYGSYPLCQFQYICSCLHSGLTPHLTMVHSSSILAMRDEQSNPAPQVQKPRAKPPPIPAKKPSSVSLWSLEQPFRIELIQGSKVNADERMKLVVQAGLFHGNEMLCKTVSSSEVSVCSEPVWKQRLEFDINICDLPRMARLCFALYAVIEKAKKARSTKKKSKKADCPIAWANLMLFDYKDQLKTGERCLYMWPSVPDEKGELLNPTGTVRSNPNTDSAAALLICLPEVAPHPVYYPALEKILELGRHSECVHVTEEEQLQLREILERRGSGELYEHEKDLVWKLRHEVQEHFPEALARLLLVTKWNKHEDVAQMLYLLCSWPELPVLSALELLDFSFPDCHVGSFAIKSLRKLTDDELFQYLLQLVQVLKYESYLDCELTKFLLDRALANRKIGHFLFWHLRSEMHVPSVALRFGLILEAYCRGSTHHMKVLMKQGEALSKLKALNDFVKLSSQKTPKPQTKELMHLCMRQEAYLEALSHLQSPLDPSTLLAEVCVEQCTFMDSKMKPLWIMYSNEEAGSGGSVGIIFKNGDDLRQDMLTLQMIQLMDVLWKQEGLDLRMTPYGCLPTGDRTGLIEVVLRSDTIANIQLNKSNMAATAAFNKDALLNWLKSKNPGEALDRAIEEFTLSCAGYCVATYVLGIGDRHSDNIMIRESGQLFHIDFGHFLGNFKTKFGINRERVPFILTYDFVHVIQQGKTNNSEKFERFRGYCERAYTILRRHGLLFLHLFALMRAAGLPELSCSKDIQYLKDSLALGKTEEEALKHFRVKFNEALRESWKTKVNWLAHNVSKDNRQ

[5] = target: T2, Inhibitor of nuclear factor kappa-B kinase subunit alpha (Homo sapiens) (UniProt O15111); assay: Inhibition of human IKKalpha in HL-60 cells lysate assessed as reduction of labeling of acyl-phosphate ATP probe at 100 nM; assay type: cell-free
T2 sequence (whole entry): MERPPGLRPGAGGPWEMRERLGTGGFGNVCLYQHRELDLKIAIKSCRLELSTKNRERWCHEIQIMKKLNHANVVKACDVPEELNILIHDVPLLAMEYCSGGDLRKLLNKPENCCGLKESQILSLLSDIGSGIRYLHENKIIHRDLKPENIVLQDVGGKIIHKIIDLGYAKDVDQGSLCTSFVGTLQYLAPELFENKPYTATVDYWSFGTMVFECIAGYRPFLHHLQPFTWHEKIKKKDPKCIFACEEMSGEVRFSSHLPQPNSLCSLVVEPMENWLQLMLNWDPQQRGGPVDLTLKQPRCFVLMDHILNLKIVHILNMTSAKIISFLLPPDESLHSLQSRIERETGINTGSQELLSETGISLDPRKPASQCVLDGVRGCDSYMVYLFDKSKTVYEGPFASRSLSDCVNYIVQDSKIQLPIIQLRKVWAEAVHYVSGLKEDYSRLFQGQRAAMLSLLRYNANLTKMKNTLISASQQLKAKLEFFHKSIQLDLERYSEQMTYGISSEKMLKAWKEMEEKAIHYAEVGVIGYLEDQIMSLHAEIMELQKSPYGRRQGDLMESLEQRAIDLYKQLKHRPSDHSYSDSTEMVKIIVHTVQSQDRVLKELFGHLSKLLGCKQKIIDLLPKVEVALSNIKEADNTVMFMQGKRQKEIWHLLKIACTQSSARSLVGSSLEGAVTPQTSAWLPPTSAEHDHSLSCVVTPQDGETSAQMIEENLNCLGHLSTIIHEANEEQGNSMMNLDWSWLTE

[6] = test system: MAP4K2 (germinal center kinase) (Homo sapiens); assay: Inhibition of human GCK in HL-60 cells lysate assessed as reduction of labeling of acyl-phosphate ATP probe at 100 nM

Sequence of Leucine-rich repeat serine/threonine-protein kinase 2 (Homo sapiens) (Q5S007 whole entry): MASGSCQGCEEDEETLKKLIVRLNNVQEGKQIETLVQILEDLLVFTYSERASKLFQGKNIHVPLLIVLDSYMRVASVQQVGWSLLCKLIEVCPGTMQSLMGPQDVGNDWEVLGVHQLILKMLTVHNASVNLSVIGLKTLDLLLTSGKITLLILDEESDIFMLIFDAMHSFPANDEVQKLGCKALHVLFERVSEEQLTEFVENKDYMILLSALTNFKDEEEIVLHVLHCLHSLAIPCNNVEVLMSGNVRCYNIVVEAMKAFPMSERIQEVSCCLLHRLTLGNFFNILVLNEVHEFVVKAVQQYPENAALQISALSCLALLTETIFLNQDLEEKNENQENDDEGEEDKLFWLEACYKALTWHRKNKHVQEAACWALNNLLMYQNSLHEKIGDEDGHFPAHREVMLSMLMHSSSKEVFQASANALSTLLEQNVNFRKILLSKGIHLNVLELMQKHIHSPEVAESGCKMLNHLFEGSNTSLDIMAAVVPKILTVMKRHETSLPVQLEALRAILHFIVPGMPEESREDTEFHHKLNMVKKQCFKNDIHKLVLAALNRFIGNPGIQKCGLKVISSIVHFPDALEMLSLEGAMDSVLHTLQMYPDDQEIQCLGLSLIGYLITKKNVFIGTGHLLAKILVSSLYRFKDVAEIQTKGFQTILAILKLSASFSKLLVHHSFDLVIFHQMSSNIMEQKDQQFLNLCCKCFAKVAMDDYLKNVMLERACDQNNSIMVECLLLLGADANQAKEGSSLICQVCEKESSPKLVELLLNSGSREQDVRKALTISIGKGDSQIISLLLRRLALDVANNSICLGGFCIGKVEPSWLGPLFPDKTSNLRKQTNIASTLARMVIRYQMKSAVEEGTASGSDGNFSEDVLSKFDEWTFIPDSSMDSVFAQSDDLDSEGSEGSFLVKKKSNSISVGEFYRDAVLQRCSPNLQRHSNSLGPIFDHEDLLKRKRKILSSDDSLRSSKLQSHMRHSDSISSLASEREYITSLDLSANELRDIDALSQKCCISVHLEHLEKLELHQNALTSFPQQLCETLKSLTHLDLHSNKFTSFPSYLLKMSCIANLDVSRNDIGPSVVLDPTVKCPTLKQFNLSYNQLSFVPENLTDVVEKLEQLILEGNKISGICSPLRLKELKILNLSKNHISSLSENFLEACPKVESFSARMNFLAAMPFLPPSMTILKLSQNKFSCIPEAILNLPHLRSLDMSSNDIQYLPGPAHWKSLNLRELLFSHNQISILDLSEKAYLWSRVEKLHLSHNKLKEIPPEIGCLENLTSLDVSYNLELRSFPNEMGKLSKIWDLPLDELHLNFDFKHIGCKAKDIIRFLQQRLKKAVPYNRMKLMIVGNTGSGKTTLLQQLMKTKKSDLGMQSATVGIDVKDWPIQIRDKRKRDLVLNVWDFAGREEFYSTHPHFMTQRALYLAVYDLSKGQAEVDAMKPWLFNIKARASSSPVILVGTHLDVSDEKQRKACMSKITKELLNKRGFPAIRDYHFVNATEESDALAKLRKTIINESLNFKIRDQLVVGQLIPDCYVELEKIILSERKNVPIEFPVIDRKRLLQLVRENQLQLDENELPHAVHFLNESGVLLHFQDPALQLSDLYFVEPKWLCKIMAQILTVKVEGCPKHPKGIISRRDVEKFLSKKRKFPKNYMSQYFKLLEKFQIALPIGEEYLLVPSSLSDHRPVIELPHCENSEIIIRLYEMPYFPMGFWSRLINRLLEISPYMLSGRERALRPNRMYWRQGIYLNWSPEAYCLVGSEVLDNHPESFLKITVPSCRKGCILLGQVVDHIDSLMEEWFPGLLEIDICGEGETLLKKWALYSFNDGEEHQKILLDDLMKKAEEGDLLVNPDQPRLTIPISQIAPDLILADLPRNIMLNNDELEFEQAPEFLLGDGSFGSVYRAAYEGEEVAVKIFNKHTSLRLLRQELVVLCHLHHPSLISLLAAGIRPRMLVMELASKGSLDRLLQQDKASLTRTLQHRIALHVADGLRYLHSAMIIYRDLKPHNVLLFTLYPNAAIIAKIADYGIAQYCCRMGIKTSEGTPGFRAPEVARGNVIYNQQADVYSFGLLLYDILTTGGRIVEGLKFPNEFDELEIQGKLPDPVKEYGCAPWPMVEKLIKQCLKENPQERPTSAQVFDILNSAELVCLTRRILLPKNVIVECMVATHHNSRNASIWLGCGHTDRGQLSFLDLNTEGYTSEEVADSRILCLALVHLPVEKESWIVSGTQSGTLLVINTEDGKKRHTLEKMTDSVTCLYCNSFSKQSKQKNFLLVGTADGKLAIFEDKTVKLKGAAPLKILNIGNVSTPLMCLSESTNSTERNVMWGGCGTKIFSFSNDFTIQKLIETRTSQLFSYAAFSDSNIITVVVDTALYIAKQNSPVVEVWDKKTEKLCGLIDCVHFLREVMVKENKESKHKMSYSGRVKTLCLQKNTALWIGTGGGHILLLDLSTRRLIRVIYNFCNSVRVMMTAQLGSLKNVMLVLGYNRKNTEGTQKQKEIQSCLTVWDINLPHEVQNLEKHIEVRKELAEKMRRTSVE
Sequence of Tyrosine-protein kinase ABL (Homo sapiens) (P00519 whole entry, looked up): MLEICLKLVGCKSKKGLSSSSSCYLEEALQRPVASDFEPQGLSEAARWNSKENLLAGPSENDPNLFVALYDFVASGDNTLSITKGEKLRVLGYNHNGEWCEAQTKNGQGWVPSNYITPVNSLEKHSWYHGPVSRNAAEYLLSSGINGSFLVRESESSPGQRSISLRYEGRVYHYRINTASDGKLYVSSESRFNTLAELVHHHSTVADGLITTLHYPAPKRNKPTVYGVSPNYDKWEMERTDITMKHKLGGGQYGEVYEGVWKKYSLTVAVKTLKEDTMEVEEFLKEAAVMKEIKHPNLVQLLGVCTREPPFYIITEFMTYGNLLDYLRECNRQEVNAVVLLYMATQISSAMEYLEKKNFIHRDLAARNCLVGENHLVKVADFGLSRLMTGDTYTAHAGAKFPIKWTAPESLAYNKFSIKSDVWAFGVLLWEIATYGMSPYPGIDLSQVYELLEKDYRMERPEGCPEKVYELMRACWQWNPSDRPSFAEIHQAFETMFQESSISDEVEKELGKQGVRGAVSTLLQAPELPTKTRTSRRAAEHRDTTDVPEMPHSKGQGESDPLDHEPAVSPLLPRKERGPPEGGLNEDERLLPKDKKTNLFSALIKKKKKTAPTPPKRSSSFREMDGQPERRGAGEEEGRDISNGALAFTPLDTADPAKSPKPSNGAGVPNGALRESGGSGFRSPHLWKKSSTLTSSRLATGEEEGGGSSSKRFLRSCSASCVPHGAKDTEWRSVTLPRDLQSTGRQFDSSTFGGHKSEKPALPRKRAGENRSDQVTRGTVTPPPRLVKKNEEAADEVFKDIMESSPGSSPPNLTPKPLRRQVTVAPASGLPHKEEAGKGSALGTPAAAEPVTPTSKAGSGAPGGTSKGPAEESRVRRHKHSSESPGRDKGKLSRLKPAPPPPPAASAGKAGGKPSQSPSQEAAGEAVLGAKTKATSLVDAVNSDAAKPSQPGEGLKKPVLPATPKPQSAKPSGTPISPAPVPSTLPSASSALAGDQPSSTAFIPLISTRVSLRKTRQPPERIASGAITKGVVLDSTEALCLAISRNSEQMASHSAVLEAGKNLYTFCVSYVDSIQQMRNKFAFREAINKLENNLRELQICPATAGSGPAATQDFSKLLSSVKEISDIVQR
Sequence of Tyrosine-protein kinase ABL (Homo sapiens) (P42684 whole entry, looked up): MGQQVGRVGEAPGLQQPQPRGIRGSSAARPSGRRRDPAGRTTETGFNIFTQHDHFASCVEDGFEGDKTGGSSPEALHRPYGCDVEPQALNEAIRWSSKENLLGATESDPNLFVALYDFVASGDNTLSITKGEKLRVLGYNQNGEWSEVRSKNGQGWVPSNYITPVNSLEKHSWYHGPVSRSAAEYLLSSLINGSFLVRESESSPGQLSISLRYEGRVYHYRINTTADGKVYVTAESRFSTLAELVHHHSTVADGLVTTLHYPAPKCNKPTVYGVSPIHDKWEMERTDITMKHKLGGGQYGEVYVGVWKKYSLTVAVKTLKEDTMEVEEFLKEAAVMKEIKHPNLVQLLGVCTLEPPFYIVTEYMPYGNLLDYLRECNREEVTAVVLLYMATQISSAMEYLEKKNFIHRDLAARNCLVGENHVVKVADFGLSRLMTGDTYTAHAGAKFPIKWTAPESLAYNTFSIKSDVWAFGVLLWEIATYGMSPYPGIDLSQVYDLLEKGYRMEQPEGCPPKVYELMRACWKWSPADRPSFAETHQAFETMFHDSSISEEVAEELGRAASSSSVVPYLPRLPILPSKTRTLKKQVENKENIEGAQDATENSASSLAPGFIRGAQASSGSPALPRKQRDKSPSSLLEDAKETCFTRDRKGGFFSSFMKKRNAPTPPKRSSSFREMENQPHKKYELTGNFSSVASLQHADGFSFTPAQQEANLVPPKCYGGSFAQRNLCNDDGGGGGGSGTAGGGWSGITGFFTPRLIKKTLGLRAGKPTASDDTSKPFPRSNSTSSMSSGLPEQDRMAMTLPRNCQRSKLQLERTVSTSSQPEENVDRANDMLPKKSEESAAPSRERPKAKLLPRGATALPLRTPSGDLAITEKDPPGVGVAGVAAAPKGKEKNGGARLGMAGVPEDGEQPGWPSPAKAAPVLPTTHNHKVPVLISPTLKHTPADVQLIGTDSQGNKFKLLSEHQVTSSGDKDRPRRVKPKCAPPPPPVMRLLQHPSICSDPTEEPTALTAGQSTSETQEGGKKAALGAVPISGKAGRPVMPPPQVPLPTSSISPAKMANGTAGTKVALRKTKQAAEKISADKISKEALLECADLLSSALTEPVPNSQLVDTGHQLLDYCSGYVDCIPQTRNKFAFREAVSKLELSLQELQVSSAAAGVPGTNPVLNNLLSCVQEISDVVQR

inhibition [1]	inhibition [2]	inhibition [3]	inhibition [4]	inhibition [5]	inhibition [6]	Structure (SMILES)
< 35%	< 35%	< 35%	< 35%	< 35%	–	C[C@H]1COc2c(NCCCc3ccccn3)c(F)c(N)c3c(=O)c(C#N)cn1c23
< 35%	< 35%	< 35%	< 35%	< 35%	–	C[C@H]1COc2c(NCCCn3cccn3)c(F)c(N)c3c(=O)c(C(=O)O)cn1c23
< 35%	< 35%	< 35%	< 35%	< 35%	< 35%	C[C@H]1COc2c(NCCCc3ccccn3)c(F)c(N)c3c(=O)c(C(=O)O)cn1c23
< 35%	< 35%	< 35%	< 35%	< 35%	< 35%	C[C@H]1COc2c(NCCCn3cccn3)c(F)c(N)c3c(=O)c(C#N)cn1c23
